# Tested on: anesthetized open-chest dogs
# Assay: Hemodynamics of anesthetized open-chest dogs, intravenous infusion
# Format: in vivo, mongrel dogs
# Conditions: 0.15 mg/kg iv
# Procedure: The animals were anesthetized by intravenous injection of 30 mg/kg sodium pentobarbital, tracheally intubated, and mechanically ventilated with positive air pressure. Left thoracotomy was performed through the fourth intercostal space and the heart was suspended in a pericardial cradle, the aortic root was isolated and a probe of blood flow meter (12 or 14 mm in diameter) was fixed to measure the aortic blood flow as a representation of cardiac output (CO), the circumflex branch of left coronary artery was isolated and a probe of blood flow meter (2 or 2.5 mm in diameter) was fixed to measure the coronary blood flow (CBF). A polyethylene catheter filled with heparin physiological saline was inserted through cardiac apex into the left ventricle to measure the left ventricular pressure (LVP) and left ventricular end-diastolic pressure (LVEDP), Peak positive and peak negative first derivatives of the LVP (+ LVdp/dt and − LVdp/dt) were calculated with the Acknowledge software. The systolic blood pressure (SBP), diastolic blood pressure (DBP) and mean arterial pressure (MAP) were measured by polyethylene catheter via the femoral artery, ECG □ was measured by a AC-601G ECG amplifier. The above-mentioned analog signal was input into a data acquisition workstation (MP100, BIOPAC Systems, USA) to a computer running Acknowledge (version 3.7.1).
# After surgery, various indexes before administration were recorded until the indexes were stable, and then intravenous infusion administration was conducted. Thirty dogs were divided into five groups (six dogs in each group), the experiment groups were given 0.15, 0.3, 0.6 mg/kg of ASP-[…] respectively, the normal control group was given 1 ml/kg of solvent, and the positive control group was given 0.3 mg/kg of astragaloside IV. The delivery volumes were 15 ml for each dog was and the delivery velocity was 1 ml/min. The indexes were recorded at 5, 10, 15, 20, 30, 45, 60, 90 and 120 mins after drug administration. At the end of experiment, the hearts were excised and weighted. The myocardial blood flow for per hectogram (CF), coronary resistance (CR), cardiac index (CI), left ventricular work (LVW) and total peripheral resistance (TPR) were calculated according to the following formulae: CF=CBF×[…]/heart weight CR=MAP/CF CI=CO/0.11×(body weight)^2/3 LVW=CO×(MAP−5)×1.052×0.0136 TPR=MAP×79.92/CO
# Data are expressed as mean±SD ( x±s), the paired t-test was used to compare the significance between before and after administration, the unpaired t-test was adopted for comparison between groups.
compound,measurement,setting,value
"CC(C)(O)[C@@H]1CC[C@](C)([C@H]2[C@@H](O)C[C@@]3(C)C4C[C@H](OC5OC(CO)C(O)C(O)C5O)C5C(C)(C)[C@@H](O)CC[C@@]56C[C@@]46CC[C@]23C)O1 (stereo partly drawn) [CMG, Cycloastragenol-6-O-β-D-glucoside]",LVW,20 min after administration,1.04 ± 0.23 kg · m
same,LVW change vs before administration,20 min after administration,(−0.08 ± 0.21) kg · m
same,TPR,20 min after administration,4882 ± 1971 dyn · s/cm^5
same,TPR change vs before administration,20 min after administration,(−268 ± 672) dyn · s/cm^5
same,dp/dt,20 min after administration,1144 ± 452 mmHg/s
same,dp/dt change vs before administration,20 min after administration,(−6 ± 113) mmHg/s
same,−dp/dt,20 min after administration,−830 ± 277 mmHg/s
same,−dp/dt change vs before administration,20 min after administration,(58 ± 77) mmHg/s
same,CF,30 min after administration,52.5 ± 16.9 ml/min/100 g
same,CF change vs before administration,30 min after administration,(−5.2 ± 7.9) ml/min/100 g
same,CI,30 min after administration,1.98 ± 0.44 L/min/m^2
same,CI change vs before administration,30 min after administration,(−0.10 ± 0.27) L/min/m^2
same,CO,30 min after administration,1.14 ± 0.24 L/min
same,CO change vs before administration,30 min after administration,(−0.07 ± 0.16) L/min
same,CR,30 min after administration,1.38 ± 0.38 mmHg/ml/min/100 g
same,CR change vs before administration,30 min after administration,(0.02 ± 0.13) mmHg/ml/min/100 g
same,LVEDP,30 min after administration,1.2 ± 2.4 mmHg
same,LVEDP change vs before administration,30 min after administration,(−0.58 ± 0.46) mmHg
same,LVP,30 min after administration,100 ± 21 mmHg
same,LVP change vs before administration,30 min after administration,(−5.0 ± 7.3) mmHg
same,LVW,30 min after administration,1.01 ± 0.26 kg · m
same,LVW change vs before administration,30 min after administration,(−0.11 ± 0.27) kg · m
same,TPR,30 min after administration,5045 ± 2043 dyn · s/cm^5
same,TPR change vs before administration,30 min after administration,(−105 ± 498) dyn · s/cm^5
same,dp/dt,30 min after administration,1170 ± 425 mmHg/s
same,dp/dt change vs before administration,30 min after administration,(20 ± 157) mmHg/s
same,−dp/dt,30 min after administration,−863 ± 258 mmHg/s
same,−dp/dt change vs before administration,30 min after administration,(25 ± 79) mmHg/s
same,CF,45 min after administration,51.6 ± 17.1 ml/min/100 g
same,CF change vs before administration,45 min after administration,(−6.1 ± 8.1) ml/min/100 g
same,CI,45 min after administration,2.02 ± 0.45 L/min/m^2
same,CI change vs before administration,45 min after administration,(−0.06 ± 0.43) L/min/m^2
same,CO,45 min after administration,1.16 ± 0.22 L/min
same,CO change vs before administration,45 min after administration,(−0.04 ± 0.25) L/min
same,CR,45 min after administration,1.42 ± 0.39 mmHg/ml/min/100 g
same,CR change vs before administration,45 min after administration,(0.07 ± 0.20) mmHg/ml/min/100 g
same,LVEDP,45 min after administration,1.3 ± 2.2 mmHg
same,LVEDP change vs before administration,45 min after administration,(−0.5 ± 0.44) mmHg
same,LVP,45 min after administration,101 ± 19 mmHg
same,LVP change vs before administration,45 min after administration,(−3.6 ± 4.6) mmHg
same,LVW,45 min after administration,1.06 ± 0.31 kg · m
same,LVW change vs before administration,45 min after administration,(−0.06 ± 0.32) kg · m
same,TPR,45 min after administration,4951 ± 1731 dyn · s/cm^5
same,TPR change vs before administration,45 min after administration,(−199 ± 925) dyn · s/cm^5
same,dp/dt,45 min after administration,1164 ± 356 mmHg/s
same,dp/dt change vs before administration,45 min after administration,(14 ± 86) mmHg/s
same,−dp/dt,45 min after administration,−854 ± 259 mmHg/s
same,−dp/dt change vs before administration,45 min after administration,(34 ± 80) mmHg/s
same,CF,60 min after administration,51.8 ± 15.0 ml/min/100 g
same,CF change vs before administration,60 min after administration,(−5.9 ± 9.9) ml/min/100 g
same,CI,60 min after administration,1.92 ± 0.42 L/min/m^2
same,CI change vs before administration,60 min after administration,(−0.16 ± 0.37) L/min/m^2
same,CO,60 min after administration,1.11 ± 0.21 L/min
same,CO change vs before administration,60 min after administration,(−0.10 ± 0.23) L/min
same,CR,60 min after administration,1.38 ± 0.36 mmHg/ml/min/100 g
same,CR change vs before administration,60 min after administration,(0.03 ± 0.16) mmHg/ml/min/100 g
same,LVEDP,60 min after administration,1.3 ± 2.1 mmHg
same,LVEDP change vs before administration,60 min after administration,(−0.46 ± 0.41) mmHg
same,LVP,60 min after administration,101 ± 19 mmHg
same,LVP change vs before administration,60 min after administration,(−4.1 ± 4.9) mmHg
same,LVW,60 min after administration,1.00 ± 0.34 kg · m
same,LVW change vs before administration,60 min after administration,(−0.12 ± 0.33) kg · m
same,TPR,60 min after administration,5112 ± 1599 dyn · s/cm^5
same,TPR change vs before administration,60 min after administration,(−38 ± 811) dyn · s/cm^5
same,dp/dt,60 min after administration,1126 ± 375 mmHg/s
same,dp/dt change vs before administration,60 min after administration,(−24 ± 57) mmHg/s
same,−dp/dt,60 min after administration,−841 ± 249 mmHg/s
same,−dp/dt change vs before administration,60 min after administration,(47 ± 92) mmHg/s
same,CF,90 min after administration,53.7 ± 14.3 ml/min/100 g
same,CF change vs before administration,90 min after administration,(−4.0 ± 10.4) ml/min/100 g
same,CI,90 min after administration,1.83 ± 0.36 L/min/m^2
same,CI change vs before administration,90 min after administration,(−0.25 ± 0.39) L/min/m^2
same,CO,90 min after administration,1.06 ± 0.20 L/min

# Reference: US8835134B2, “Cycloastragenol monoglucoside, preparation, pharmaceutical composition and application thereof” (Tianjin Institute of Pharmaceutical Research, priority 2007, dated 2014)
